Values joined by “and” are separate entries in the source; they are usually repeats but may differ in a detail not shown here. Equal values may be shown once.
Tested on: cows after calving
Assay: Effect of improving cow reproductive ability (first return to estrus after calving, composition mounted on the leash)
Format: in vivo
Conditions: for First return to estrus day after calving: leash mounting type, 3 heads
Text: The mixture was poured into a wax tray and completely hardened to prepare a composition for improving cow reproductive ability.
By using the composition prepared in Example 2, the effect of improving the cow reproductive ability was confirmed after being mounted on the leash of cows after calving. The first return to estrus after calving was generally known to be 60 to 90 days, and in the experiment, confirmed to be average 84.20±6.64 in the case of cow used as a control group.

Cc1ccc(O)cc1 [p-cresol]
First return to estrus day after calving (1% p-cresol in paraffin wax block): 46 ± 4 days | First return to estrus day after calving (5% p-cresol in paraffin wax block): 28 days and 28 ± 4 days | Return of estrus earlier than the earliest normal return time of estrus (approximately 45 days after calving) (5% p-cresol pheromone block): about 17 days

— patent publication US20250120922A1, “COMPOSITION FOR IMPROVING COW REPRODUCTIVE ABILITY” (SOLOMON CO., LTD., priority 2022, published 2025)
